Reference: paper PMC3413639 (PLoS ONE, 2012)
Like-named read-outs stand apart in the source and are kept apart here.

Experiments:
[1] = Brain-to-plasma ratio of Wf-516; assay type: in vivo; settings: at the time of reaching maximal plasma concentration, unpublished data
5-HT1A receptors [2] = target: T1, 5-HT1A receptors (Rattus norvegicus, UniProt P19327); parameters: method as in earlier work; settings: rat hippocampal homogenates; read-out: Ki (in vitro estimate); cited from earlier work
T1 sequence (P19327 1-422): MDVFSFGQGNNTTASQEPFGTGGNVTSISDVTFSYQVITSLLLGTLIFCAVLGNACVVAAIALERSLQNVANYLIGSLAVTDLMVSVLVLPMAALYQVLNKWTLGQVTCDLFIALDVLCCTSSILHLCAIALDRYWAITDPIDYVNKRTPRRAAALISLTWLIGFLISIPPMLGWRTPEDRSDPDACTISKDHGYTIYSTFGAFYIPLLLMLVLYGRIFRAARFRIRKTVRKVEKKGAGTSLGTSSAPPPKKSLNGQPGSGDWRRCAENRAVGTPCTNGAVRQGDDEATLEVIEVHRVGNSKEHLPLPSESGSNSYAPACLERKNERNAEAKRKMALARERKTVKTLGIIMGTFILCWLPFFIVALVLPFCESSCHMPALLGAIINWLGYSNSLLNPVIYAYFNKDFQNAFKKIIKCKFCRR

5-HTTs = tested on: 5-HTTs; parameters: method as in PMID 19236731; settings: cited from earlier work
5-HT1A receptors [3] = target: T1, 5-HT1A receptors; assay: [11C]WAY-100635-PET of rats treated with 5,7-DHT, a toxicant for 5-HT neurons; settings: 30 mg/kg oral
5-HT1A receptors [4] = target: T1, 5-HT1A receptors; assay: In vitro ARG, inhibition of [11C]WAY-100635 binding in rat brain sections; parameters: Twenty-micrometer-thick frozen brain sections were preincubated; from tissue; host or cells: rat brain (hippocampus and raphe nucleus): frozen sections or living animals; settings: for Ki: 0.9 nM [11C]WAY-100635
Method: Rats were sacrificed by decapitation. Twenty-micrometer-thick frozen brain sections were preincubated for 30 min in 50 mM Tris-HCl (pH 7.4) containing 1 mM MnCl2. […] Subsequently, the sections were rinsed twice with ice-cold Tris-HCl buffer for 5 min and then desalted with ice-cold distilled water for 10 sec. These samples were warmly blow-dried and placed in contact with an imaging plate (Fuji Film, Tokyo, Japan) for 60 min. Signals on the imaging plate were detected by BAS5000 system (Fuji Film).

5-HT1A receptors [5] = target: T1, 5-HT1A receptors; assay: Ex vivo ARG, 5-HT1A receptor occupancy after drug administration; assay type: in vivo; parameters: Twenty-micrometer-thick frozen brain sections were preincubated; from tissue; host or cells: rat brain (hippocampus and raphe nucleus): frozen sections or living animals; settings: for ED50: rat, po, ex vivo ARG, read-out: ED50 (5-HT1A receptor occupancy)
Method: Animals were then killed by decapitation 5 h and 30 min after their administration, respectively. Autoradiographic analysis was performed using procedures similar to in vitro ARG except for incubation temperature (37°C) and times for preincubation (30 sec), incubation (5 min) and rinsing (1 min). […] The doses of these drugs at half-maximal effect (ED50) were determined according to the following relationship: [drawing 2] where D is the dose of the drug.

5-HT1A receptors [6] = target: T1, 5-HT1A receptors; assay: Autoradiographic [35S]GTPγS binding in rat brain sections; assay type: biochemical; parameters: Twenty-micrometer-thick frozen brain sections were preincubated; from tissue; host or cells: rat brain (hippocampus and raphe nucleus): frozen sections or living animals; settings: raphe nucleus; 10 µM; p<0.01; increment smaller than that by 8-OH-DPAT
Method: Autoradiographic procedures were performed as described previously, with some modifications. The sections were preincubated for 15 min in 50 mM 4-(2-hydroxyethyl)-1-piperazineethanesulfonic acid (HEPES; pH 7.4) containing 10 mM NaCl, 3 mM MgCl2 and 0.2 mM ethylene glycol tetraacetic acid. A second preincubation using the same buffer containing 2 mM GDP was performed for 15 min. The sections were subsequently incubated in the same buffer containing 2 mM GDP, 0.2 mM dithiothreitol and 0.04 nM [^35S]GTPγS for 120 min. Basal [^35S]GTPγS binding was defined in the absence of test drugs. […] Nonspecific binding was estimated using 10 µM nonradioactive GTPγS. The incubation was terminated by ice-cold 50 mM HEPES (pH 7.0). The sections were desalted with ice-cold distilled water, dried, and placed in contact with an imaging plate for 2 days. Signal detection and image analysis were performed as described above.

5-HT1A receptors [7] = target: T1, 5-HT1A receptors; assay: [18F]MPPF PET, BPND and 5-HT1A receptor occupancy; assay type: in vivo; parameters: Rats were sacrificed by decapitation; Twenty-micrometer-thick frozen brain sections were preincubated; from tissue; host or cells: rat brain (hippocampus and raphe nucleus): frozen sections or living animals; settings: mean ± S.E.; for receptor occupancy at 30 mg/kg: rat

For `Cc1nnc(-c2cc3c(OC[C@@H](O)CN4CCC(c5ccc(Cl)c(Cl)c5)CC4)cccc3o2)o1.Cl` [Wf-516, (2S)-1-[4-(3,4-dichlorophenyl)piperidin-1-yl]-3-[2-(5-methyl-1,3,4-oxadiazol-2-yl)benzo[b]furan-4-yloxy]propan-2-ol monohydrochloride], the Kp [1] is given as about 2, the Ki (5-HT1A receptors [2]) is given as 7.4 nM and the “ED50 for blockade of 5-HTTs” value (5-HTTs; previous PET study) is given as 3 mg/kg. For the same compound, the “Occupancy of 5-HTT among regions” value (5-HTTs; previous observation) was “homogenous among regions”, the “Change of BPND in 5,7-DHT-treated rats” value (5-HT1A receptors [3]; hippocampus, compared with baseline) was “significant decrease of BPND” and the “Change of BPND in 5,7-DHT-treated rats” value (5-HT1A receptors [3]; raphe nucleus) was “no additional reduction of BPND”. The “Blockage of 5-HT1A receptors by excess amounts of drug” value (5-HT1A receptors [4]; hippocampus and raphe nucleus, up to 1000 nM) was “near-complete blockage”, the Ki (5-HT1A receptors [4]; hippocampus) was 8.1 nM and the Ki (5-HT1A receptors [4]; raphe nucleus) was 7.9 nM. The “5-HT1A receptor binding (occupancy), dose-dependent up to” value (5-HT1A receptors [5]; oral, 5 h after administration, irrespective of region) was “approximately 80%”, the ED50 (5-HT1A receptors [5]; hippocampus) was 5.3 mg/kg and the ED50 (5-HT1A receptors [5]; raphe nucleus) was 4.2 mg/kg. The “[35S]GTPγS binding compared with 1 µM WAY-100635” value (5-HT1A receptors [6]) was “significantly increased”, the “BPND Hippocampus” value (5-HT1A receptors [7]; 30 mg/kg) was 1.100±0.015 and the “BPND Raphe” value (5-HT1A receptors [7]; 30 mg/kg) was 0.227±0.027. For the same compound, the receptor occupancy at 30 mg/kg (5-HT1A receptors [7]; read-out: Occupancy (%) Hippocampus) was 23.3 ± 1.5% and the receptor occupancy at 30 mg/kg (5-HT1A receptors [7]; read-out: Occupancy (%) Raphe) was 45.7 ± 6.5%.
